According to patent US10463644B2, “Uses of sesquiterpene lactone compounds and their derivatives in drugs preparation” (ACCENDATECH, priority 2013, dated 2019):
Like-named read-outs stand apart in the source and are kept apart here.

Key:
normal cells = test: Survival rate of normal cells after test compound is added (flow cytometry, Annexin V-FITC/PI); format: cell-based; conditions: 18 h
Procedure, shortened: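 Survival was determined in clinical specimens after an 18 h compound treatment, using Annexin V-FITC/PI apoptosis staining and flow cytometry.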

cancer cells = test: Survival rate of cancer cells after test compound is added (flow cytometry, Annexin V-FITC/PI, clinical specimen); format: cell-based, patient; conditions: Homo sapiens, 18 h, read-out: Survival rate (%) All cells (Stem cells and ordinary cells)
Procedure, shortened: (§1)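 Mononuclear cells from fresh or cryopreserved clinical samples, isolated by Ficoll gradient and held in serum-free IMDM (1×10^6/mL), received compound for 18 h. After labelling with marker antibodies (CD34+CD38+ for AML), Annexin V-FITC and PI staining was analysed by flow cytometry.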

[1] = tested on: TNF-α secreted by synoviocyte; test: Content of TNF-α in culture supernatant of synoviocyte of RA model rats given test compound; format: in vivo; conditions: rat RA model, dose 30 mg/kg.2d; normal control 0.38 ± 0.027, NaCl 0.74 ± 0.098
Procedure, shortened: (§2)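 Read-out: TNF-α, PGE2 and IL-1β levels in supernatant from cultured synoviocytes. Cells came from RA model rats treated with compound at 30 mg/kg.2d, and from NaCl-treated and normal control rats.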

[2] = tested on: IL-1β secreted by synoviocyte; test: Content of IL-1β in culture supernatant of synoviocyte of RA model rats given test compound; format: in vivo; conditions: rat RA model, dose 30 mg/kg.2d; normal control 0.16 ± 0.034, NaCl 0.49 ± 0.136
Procedure, shortened: as §2

cancer stem cells = test: Survival rate of cancer stem cells after test compound is added (flow cytometry, Annexin V-FITC/PI, clinical specimen); format: cell-based, patient; conditions: Homo sapiens, 18 h
Procedure, shortened: as §1

[3] = read-out: Survival rate (%) All cells (Stem cells and ordinary cells)
[4] = read-out: Survival rate (%) Stem cells
[5] = Head and neck squamous cell carcinomas

CCOC(=O)[C@@H]1CCCN1C[C@@H]1C(=O)O[C@H]2[C@H]1CCC1(CC1)[C@@H]1CCC3(CC3)[C@H]21 [Compound 29]
88%: viability at 20 µM (cancer cells; AML) | viability at 10 µM (cancer cells; Breast cancer) | viability at 10 µM (cancer cells; CLL) | viability at 20 µM (cancer cells; Colorectal cancer) | viability at 10 µM (cancer cells; Gastric cancer) | viability at 20 µM (cancer cells; Glioma) | viability at 10 µM (cancer cells; [5]) | viability at 10 µM (cancer cells; Nasopharynx cancer) | viability at 10 µM (cancer cells; Pancreatic cancer) | viability at 10 µM (cancer stem cells; Lung adenocarcinoma) | viability at 10 µM (cancer stem cells; Ovarian cancer)
73%: viability at 20 µM (cancer stem cells; Malignant melanoma) | viability at 20 µM (cancer stem cells; Skin cancer)
75%: viability at 20 µM (cancer stem cells; CML) | viability at 20 µM (cancer stem cells; Colon adenocarcinoma) | viability at 20 µM (cancer stem cells; Gastrointestinal tumor)
85%: viability at 20 µM (cancer cells; CLL) | viability at 20 µM (cancer cells; [5]) | viability at 20 µM (cancer cells; Nasopharynx cancer) | viability at 10 µM (cancer stem cells; CLL) | viability at 10 µM (cancer stem cells; Children hepatoblastoma) | viability at 10 µM (cancer stem cells; Laryngeal cancer) | viability at 10 µM (cancer stem cells; Liver cancer) | viability at 10 µM (cancer stem cells; Nasopharynx cancer) | viability at 10 µM (cancer stem cells; Prostate cancer) | viability at 10 µM (cancer stem cells; Retinoblastoma)
91%: viability at 10 µM (cancer cells; AML) | viability at 10 µM (cancer cells; Colorectal cancer) | viability at 10 µM (cancer cells; Glioma) | viability at 10 µM (cancer cells; Lung adenocarcinoma) | viability at 10 µM (cancer cells; Malignant melanoma) | viability at 10 µM (cancer cells; Ovarian cancer) | viability at 10 µM (cancer cells; Skin cancer)
92%: viability at 20 µM (normal cells; [4]) | viability at 10 µM (cancer cells; Children hepatoblastoma) | viability at 10 µM (cancer cells; Liver cancer) | viability at 10 µM (cancer cells; Retinoblastoma)
82%: viability at 10 µM (cancer stem cells; Brain glioma) | viability at 10 µM (cancer stem cells; [5]) | viability at 10 µM (cancer stem cells; Malignant melanoma) | viability at 10 µM (cancer stem cells; Pancreatic cancer) | viability at 10 µM (cancer stem cells; Skin cancer)
74%: viability at 20 µM (cancer stem cells; [5])
93%: viability at 10 µM (normal cells; [4]) | viability at 10 µM (cancer cells; Laryngeal cancer) | viability at 10 µM (cancer cells; Prostate cancer)
94%: viability at 10 µM (cancer cells; Brain tumor) | viability at 10 µM (cancer cells; Lung cancer)
83%: viability at 20 µM (cancer cells; CML) | viability at 20 µM (cancer cells; Colon adenocarcinoma) | viability at 20 µM (cancer cells; Gastrointestinal tumor)
86%: viability at 20 µM (cancer cells; Brain glioma) | viability at 20 µM (cancer cells; Laryngeal cancer) | viability at 20 µM (cancer cells; Prostate cancer)
79%: viability at 10 µM (cancer stem cells; Breast cancer) | viability at 20 µM (cancer stem cells; CLL) | viability at 10 µM (cancer stem cells; Gastric cancer) | viability at 20 µM (cancer stem cells; Laryngeal cancer) | viability at 20 µM (cancer stem cells; Nasopharynx cancer) | viability at 20 µM (cancer stem cells; Prostate cancer)
89%: viability at 10 µM (cancer cells; Brain glioma) | viability at 20 µM (cancer cells; Children hepatoblastoma) | viability at 20 µM (cancer cells; Liver cancer) | viability at 20 µM (cancer cells; Lung adenocarcinoma) | viability at 20 µM (cancer cells; Ovarian cancer) | viability at 20 µM (cancer cells; Pancreatic cancer) | viability at 20 µM (cancer cells; Retinoblastoma)
87%: viability at 20 µM (cancer cells; Brain tumor) | viability at 10 µM (cancer cells; CML) | viability at 10 µM (cancer cells; Colon adenocarcinoma) | viability at 10 µM (cancer cells; Gastrointestinal tumor) | viability at 20 µM (cancer cells; Lung cancer) | viability at 20 µM (cancer cells; Malignant melanoma) | viability at 20 µM (cancer cells; Skin cancer) | viability at 10 µM (cancer stem cells; Brain tumor) | viability at 10 µM (cancer stem cells; Lung cancer)
72%: viability at 20 µM (cancer stem cells; Breast cancer) | viability at 20 µM (cancer stem cells; Gastric cancer)
78%: viability at 20 µM (cancer stem cells; AML) | viability at 20 µM (cancer stem cells; Colorectal cancer) | viability at 20 µM (cancer stem cells; Glioma)
77%: viability at 20 µM (cancer stem cells; Children hepatoblastoma) | viability at 20 µM (cancer stem cells; Liver cancer) | viability at 20 µM (cancer stem cells; Retinoblastoma)
76%: viability at 20 µM (cancer stem cells; Brain glioma) | viability at 20 µM (cancer stem cells; Brain tumor) | viability at 20 µM (cancer stem cells; Lung cancer) | viability at 20 µM (cancer stem cells; Pancreatic cancer)
95%: viability at 20 µM (normal cells; [3])
84%: viability at 10 µM (cancer stem cells; AML) | viability at 10 µM (cancer stem cells; Colorectal cancer) | viability at 10 µM (cancer stem cells; Glioma)
96%: viability at 10 µM (normal cells; [3])
0.66 ± 0.046 ng/mL: Content of TNF-α in culture supernatant of synoviocyte (x ± s) [1]
81%: viability at 20 µM (cancer cells; Breast cancer) | viability at 20 µM (cancer cells; Gastric cancer) | viability at 10 µM (cancer stem cells; CML) | viability at 10 µM (cancer stem cells; Colon adenocarcinoma) | viability at 10 µM (cancer stem cells; Gastrointestinal tumor) | viability at 20 µM (cancer stem cells; Lung adenocarcinoma) | viability at 20 µM (cancer stem cells; Ovarian cancer)
0.34 ± 0.039 ng/mL: Content of IL-1β in culture supernatant of synoviocyte (x ± s) [2]
